Consider two compounds from patent publication US4605641A, “Synthetic vasoactive intestinal peptide analogs” (Hoffmann-La Roche Inc., priority 1984, dated 1986).

Peptide text beside a SMILES is read from it.

In assay [1] the test system is guinea pig trachea smooth muscle. Put plainly: Bronchodilator (relaxant) effect on isolated guinea pig tracheal rings. The settings on record: for Relative Potency: guinea pig trachea, relative to VIP = 100%; for EC50: guinea pig tracheal rings, relaxation as % of maximum response to VIP 10^-6 M, three tissues pooled, linear regression, read-out: EC50 (M), agonist activity, bronchodilator effect. The class given is cell-based. From the text: The bronchodilatory effect of VIP analogs was studied in a model utilizing guinea pig trachea. Wasserman, M. A. et al. "Comparative In Vitro Tracheal Relaxant Effects of Porcine and Hen VIP" in Vasoactive Intestinal Peptide ed. Said, S.I., Raven Press (New York, 1982).
All tissues were taken from male albino guinea pigs weighing 400-600 g, anesthetized with urethane 2 g/kg i.p. After exsanguination the trachea was removed and divided into four ring segments (3 mm length). Each ring was suspended by two 30 guage stainless steel wires in a 10 ml jacket tissue bath and attached via 4-0 silk thread to a Grass force displacement transducer (model FT03C, Grass Instrument Co., Quincy, MA), for isometric recording of tension. The smooth muscle was bathed in modified Krebs solution of the following composition: NaCl, 120 mM; KCl, 4.7 mM; CaCl2, 2.5 mM; MgSO4.7H2 O; 1.2 mM; NaHCO3, 25 mM; KH2 PO4 monobasic, 1.2 mM; and dextrose, 10 mM. Tissue baths were maintained at 37.5° C. and constantly bubbled with 95% O2 and 5% CO2. Responses were recorded on an 8 channel and 4 channel Hewlett-Packard (model 7702B and 7754A, respectively) recorder (Hewlett Packard, Paramus, NJ). Tracheal rings were placed under a resting tension of 1.5 g which was determined to be at or near optimal in preliminary experiments. Frequent readjustments of tension were required during the 60 min. stabilization period which followed. Tissues were rinsed at 15 min. intervals.
(§1) Cumulative concentration response curves were obtained for each tissue by successive […] in the bath concentration of VIP or potential VIP agonists according to the method of VanRossum J. M., Arch. Int Pharmacodyn, 143, 299-330 (1963). Only one cummulative dose response curve was obtained on a single piece of tissue. To minimize variability between tissues, relaxant responses are expressed as a percentage of the maximum response obtainable to VIP (10^-6 M=100%) added at the end of the concentration response curve. Responses obtained from three tissues were pooled and EC50 values were determined by linear regression.

Assay [2] has as its system Human Bronchial Smooth Muscle. The assay can be described thus: Relaxation of isolated human bronchial smooth muscle rings. The class given is cell-based. The settings on record: human bronchial smooth muscle; relative to VIP (1-28) = 100%. On the procedure: Human bronchial smooth muscle or intra-pulmonary arteries were obtained from surgical section or autopsy from Overlook Hospital, Summit, N.J. Airway or vascular rings were suspended by two 30 gauge stainless steel wires in a 10 ml jacket tissue bath and attached via 4-0 silk thread to a Grass forcer displacement transducer (model FT030C, Grass Instrument Co., Quincy, MA), for isometric recording of tension. The smooth muscle was bathed in modified Kreb's solution of the following composition: NaCl, 120 mM; KCl, 4.7 mM; CaCL2, 2.5 mM; MgSO4.7H2 O; 1.2 mM; NaHCO3, 25 mM; KH2 PO4 monobasic, 1.2 mM; and dextrose, 10 mM. Tissue baths were maintained at 37.5° C. and constantly bubbled with 95% O2 and 5% CO2. Responses were recorded on a 8 channel and 4 channel Hewlett-Packard (model 7702B and 7754A, respectively) recorder (Hewlett Packard, Paramus, NJ). All tissues were placed under a resting tension (airway, 1.5 g; vascular, 1 g) which was determined to be near optimal in preliminary experiments. Frequent readjustments of tension were required during the 120-180 min. stabilization period which followed. Tissues were rinsed at 15 min. intervals. Vascular tissues were primed once with phenylephrine (10^-5 M) and washed for an additional hour. Steady state contractions of vacular tissues were obtained with phenylephrine (10^-5 M) while airway tissues were precontracted with histamine (3×10^-4 M).
as §1, with “noted above.” for “J. M., Arch. Int Pharmacodyn, 143, 299-330 (1963).”, “cumulative” for “cummulative”, “were” for “are”, “papaverine (vascular, 10^-4 M=100%) or isoproterenol (airway, 10^-4” for “VIP (10^-6”, “curve. […]” for “curve.”, “four” for “three”

On to `CCCC[C@H](NC(=O)[C@H](CCC(N)=O)NC(=O)[C@H](CCCCN)NC(=O)[C@H](CCCNC(=N)N)NC(=O)[C@H](CC(C)C)NC(=O)[C@H](CCCCN)NC(=O)[C@@H](NC(=O)[C@H](Cc1ccc(O)cc1)NC(=O)[C@H](CC(N)=O)NC(=O)[C@H](CC(=O)O)NC(=O)[C@@H](NC(=O)[C@H](Cc1ccccc1)NC(=O)[C@@H](NC(=O)[C@H](C)NC(=O)[C@H](CC(=O)O)NC(=O)[C@H](CO)NC(=O)[C@@H](N)Cc1c[nH]cn1)C(C)C)[C@@H](C)O)[C@@H](C)O)C(=O)N[C@@H](C)C(=O)N[C@H](C(=O)N[C@@H](CCCCN)C(=O)N[C@@H](CCCCN)C(=O)N[C@@H](Cc1ccc(O)cc1)C(=O)N[C@@H](CC(C)C)C(=O)N[C@@H](CC(N)=O)C(=O)N[C@@H](CO)C(=O)N[C@H](C(=O)N[C@@H](CC(C)C)C(=O)N[C@@H](CC(N)=O)C(N)=O)[C@@H](C)CC)C(C)C` [(Lys^12, Nle^17)--VIP, (Lys^12, Nle^17)-VIP] (HELM PEPTIDE1{H.S.D.A.V.F.T.D.N.Y.T.K.L.R.K.Q.[Nle].A.V.K.K.Y.L.N.S.I.L.N.[am]}$$$$V2.0), for which, in assay [1], the “Relative Potency” value is 263% and the EC50 was 3.8e-09 M. For the same compound, the “Rel. Potency” value in assay [2] worked out at 165%.

Regarding `CCCC[C@H](NC(=O)[C@H](CCC(N)=O)NC(=O)[C@H](CCCCN)NC(=O)[C@H](CCCNC(=N)N)NC(=O)[C@H](CC(C)C)NC(=O)[C@H](CCCNC(=N)N)NC(=O)[C@@H](NC(=O)[C@H](Cc1ccc(O)cc1)NC(=O)[C@H](CC(N)=O)NC(=O)[C@H](CC(=O)O)NC(=O)[C@@H](NC(=O)[C@H](Cc1ccccc1)NC(=O)[C@@H](NC(=O)[C@H](C)NC(=O)[C@H](CC(=O)O)NC(=O)[C@H](CO)NC(=O)[C@@H](N)Cc1c[nH]cn1)C(C)C)[C@@H](C)O)[C@@H](C)O)C(=O)N[C@@H](C)C(=O)N[C@H](C(=O)N[C@@H](CCCCN)C(=O)N[C@@H](CCCCN)C(=O)N[C@@H](Cc1ccc(O)cc1)C(=O)N[C@@H](CC(C)C)C(=O)N[C@@H](CC(N)=O)C(=O)N[C@@H](CO)C(=O)N[C@H](C(=O)N[C@@H](CC(C)C)C(=O)N[C@@H](CC(N)=O)C(N)=O)[C@@H](C)CC)C(C)C` [(Nle^17)--VIP, (Nle^17)VIP], in assay [1], the “Relative Potency” value was found to be 156% and the concentration giving a half-maximal response (EC50) was determined as 6.4e-09 M. Moreover, in assay [2], the “Rel. Potency” value is given as 215%.

One may read the EC50 as the concentration that produces a half-maximal response.
